Laboratory results reported in PMC9845330 (Communications Biology, 2023).
Non-standard residues stand in square brackets, D forms with d. Residues, ends and D or L forms follow the SMILES beside them. *: point of attachment. X1 = O=C(CCCC[C@@H]1SC[C@@H]2NC(=O)N[C@@H]21)NCCCOCCOCCOCCCN*; PEG12 = NCCOCCOCCOCCOCCOCCOCCOCCOCCOCCOCCOCCOCCC(=O)O

Legend:
H358 cells = test: Cell internalization by flow cytometry, absolute uptake (molecules per cell); type: cell-based, human; settings: for Molecules Internalized Per Cell: Average
Description: Optimizing MGS4 as a monomer is efficient but the optimal valency of the truncated peptide may be different than that of the full-length peptide. The peptide was synthesized as a monomer (MGS4_V8), dimer (MGS4_V9), and tetramer (MGS4_V10). To obtain quantitative data, we moved from measuring the relative fluorescence of dye-labeled peptide to the determination of the average number of dye molecules internalized per cell. […] The dimer MGS4_V9 has an EC50 7-fold lower indicating there is a synergistic effect in going from a monomer to a dimer (Fig. 2a and Table 2). However, there is only a 2-fold decrease in going from a dimer to a tetrameric peptide (MGS4_V10). We also calculated the EC50 on three other NSCLC cell lines (Table 2 and Supplementary Figure 3). […] The average number of peptides internalized per cell at saturating conditions varies, with H1993 cells internalizing the highest number of peptides at all three valencies (Table 2). This is likely due to differing levels of receptor expression on the cell type. The average molecules internalized at 50 nM in one hour follows the same trend (Fig. 2b).
Biotinylated peptide was conjugated to streptavidin-R-phycoerythrin or streptavidin-Alexa Fluor 647 (1:1 molar ratio) for 30 min. The open binding sites on streptavidin were quenched with RPMI 1640 and diluted to the indicated concentration. Tumor cells were grown to 90% confluency in a 12 well plate, then incubated with 500 µl peptide-dye conjugate at 37 °C. After 1 h, peptide was removed, and the cells were washed 3x with PBS (137 mM NaCl, 2.7 mM KCl, 10 mM Na2HPO4, 1.8 mM KH2PO4, pH 7.4), 2x with 0.1 M HCl-glycine pH2.2 in 0.9% NaCl, and 1x PBS rinse. Cells were removed by trypsinization. Flow cytometry was performed on a BD FACSCelesta, and data were analyzed on Flowing software. Cells were gated based on the forward and side scatter to include only viable cells and a minimum of 10,000 events were counted. A region containing <5% of the cells in the negative control was established, and relative peptide uptake by the mean fluorescence intensity of that population. For absolute peptide uptake per cell, a standard curve was generated using Quantum™ Alexa Fluor 647 microspheres (Bangs Laboratory, Fishers, IN). A representative linear regression showing the correlation of molecule equivalents soluble fluorophores (MESF) vs the mean fluorescence intensity (MFI) is shown in Supplemental Figure 6. Cells were gated based on the forward and side scatter to include only viable cells and a minimum of 10,000 events were counted. MFI was determined at 50% at peak height. Molecules internalized per cell were determined by the standard curve relating MESF to MFI and divided by the number dye molecules/MGS conjugate. An example is shown in supplemental Figure 7. GraphPad Prism® was used for non-linear regression curve fitting to calculate an EC50. Parameters and statistical analysis are provided (Supplementary Tables 2–6). Experiments were repeated a minimum of three times.
For all EC50 determinations, each peptide variant was tested on the indicated cell line with a minimum of 3 biological replicates and analyzed individually by flow cytometry. The standard error measurement for each concentration is indicated by error bars in the figures. For experiments in which absolute number of molecules internalized was measured at different concentrations, EC50 were determined by GraphPad Prism® using nonlinear regression curve fitting for log(agonist) vs. response–Variable slope (four parameters). For the truncation experiments, EC50 were determined using one-site-specific binding. Similarly, IC50s were calculated using GraphPad Prism® using log(agonist) vs. response–Variable slope (four parameters). A minimum of four biological replicates were performed for each variant and cell line. Data for individual experiments are included in supplementary files. Parameters and statistical analysis are provided in Supplementary Tables 2–7. […]

Stability in human serum = type: in vitro ADME; settings: 100% human serum, 48 h, 37 °C, serum proteins precipitated, analytical HPLC, MALDI TOF/TOF MS
Experimental: To address if acetylation is effective in reducing serum degradation of MGS4, acetylated (MGS4_V8) and non-acetylated (MGS4_V4) peptides were dissolved in human serum and incubated for 48 h at 37 °C. The peptides were monitored by analytical HPLC, and products were verified via MALDI TOF/TOF™ MS. […] Instead, a mixture of peptide fragments is detected, none of which correspond to the mass of the starting peptide (Supplemental Table 1 and Supplemental Fig. 2). The major products are shorter fragments corresponding to the loss of the five N-terminal amino acids. Fragments related to QSFYT-PEG11, SFYT-PEG11 and FYT-PEG11 are observed.
Supplemental Figure 1. […]
M GS4_V4 (non-acetylated, panel a) and M GS4_V8 (acetylated, panel b ) were incubated in 100% human serum for 0 and 48-hours. Serum proteins were precipitated, and the peptide was analyzed by analytical
HPLC. The mass of the peptide and degradation products were determined by MALDI MS and are […]
MGS4_V8, MGS4_V9, or MGS4_V10 were conjugated with streptavidin-Alexa Fluor 650 and were incubated with the indicated cell line for 1 hour. Non-internalized peptide was rem ov ed, and the mean number of peptides internalized per cell was determined to calculate the EC50. […]
Supplemental Figure 4 : Peptide-Streptavidin conjugates are nontoxic to cells. a. […] After 72 hours, viability was measured. […]

## CC(=O)N[C@@H](Cc1ccccc1)C(=O)N[C@@H](Cc1c[nH]cn1)C(=O)N[C@@H](C)C(=O)N[C@H](C(=O)N1CCC[C@H]1C(=O)N[C@@H](CCC(N)=O)C(=O)N[C@@H](CO)C(=O)N[C@@H](Cc1ccccc1)C(=O)N[C@@H](Cc1ccc(O)cc1)C(=O)N[C@H](C(=O)NCCOCCOCCOCCOCCOCCOCCOCCOCCOCCOCCOCCOCCC(=O)N[C@@H](CCC(=O)NCCCOCCOCCOCCCNC(=O)CCCC[C@@H]1SC[C@@H]2NC(=O)N[C@@H]21)C(N)=O)[C@@H](C)O)C(C)C [MGS4_V8] (Ac-FHAVPQSFYT[PEG12]E(X1)-NH2)
H358 cells; 0.01 nM
  Molecules Internalized Per Cell: 0
H358 cells; 0.1 nM
  Molecules Internalized Per Cell: 11
H358 cells; 1 nM
  Molecules Internalized Per Cell: 140
H358 cells; 5 nM
  Molecules Internalized Per Cell: 2481
H358 cells; 10 nM
  Molecules Internalized Per Cell: 4840
H358 cells; 20 nM
  Molecules Internalized Per Cell: 25103
H358 cells; 30 nM
  Molecules Internalized Per Cell: 36064
H358 cells; 40 nM
  Molecules Internalized Per Cell: 47392
H358 cells; 50 nM
  Molecules Internalized Per Cell: 58761
H358 cells; 60 nM
  Molecules Internalized Per Cell: 66918
H358 cells; 80 nM
  Molecules Internalized Per Cell: 68326
H358 cells; H358 Cells
  Saturation (molecules): 85,500 ± 39600 molecules
H358 cells; Supplementary Table 5
  HillSlope: 1.829
  LogIC50: -7.470
  Top: 85477
Stability in human serum
  peptide after incubation in human serum: only full-length peptide observed
